Test results published in ChEMBL document CHEMBL4651402, “Screening of ~5500 FDA-approved drugs and clinical candidates for anti-SARS-CoV-2 activity” (2021).
Numbered stars: 1 amine (or outer) side, 2 acyl side, 3 side chain; on linkers, the order of the positions; unused ones are H or OH. Bridge positions count the residues as written; N and C are the ends. Square brackets hold non-standard residues; d marks the D form. Peptide text beside a SMILES is read from it. I, II: the chains in the order shown. Actinocin(1to9) = Cc1c2oc3c(C)ccc(C(=O)[*:2])c3nc-2c(C(=O)[*:1])c(N)c1=O; NMeV = CN[C@H](C(=O)O)C(C)C; Sar = CNCC(=O)O

Tested on: SARS-CoV-2
Experiment: microbe, parasite or virus in culture
Conditions: Severe acute respiratory syndrome coronavirus 2, Vero C1008, 48 h

SMILES	IC50 [µM]	IC50 (read-out: pIC50 (converted)) [µM]
CC(C)C(C)/C=C/C(C)C1CCC2C3=CC=C4CC(O)CCC4(C)C3CCC21C (stereo not drawn)	> 20	> 20
Cc1cnc(C(=O)NCCc2ccc(S(=O)(=O)NC(=O)NC3CCCCC3)cc2)cn1 [GLIPIZIDE]	> 20	> 20
COc1ccccc1CN[C@H]1CCCN[C@H]1c1ccccc1 [CP-99994]	> 20	> 20
COc1cccc(-c2cc(=O)c3ccccc3o2)c1N	> 20	> 20
CCC(CO)NC(=O)[C@@H]1C=C2c3cccc4[nH]cc(c34)CC2N(C)C1 (stereo partly drawn)	> 20	> 20
CC(C)C(N)C(=O)NC(Cc1ccc(O)cc1)C(=O)O (stereo not drawn) (H-Val-Tyr-OH; configuration not given here)	> 20	> 20
Cc1ccc2c(-c3ccccc3)nc(=O)n(C(C)C)c2c1 [PROQUAZONE]	> 20	> 20
COCc1cccc(C[C@H](O)/C=C/[C@H]2[C@H](O)CC(=O)[C@@H]2CCSCCCC(=O)OC)c1 [RIVENPROST]	> 20	> 20
CC(=O)Oc1ccc(C2(c3ccc(OC(C)=O)cc3)C(=O)Nc3ccccc32)cc1 [OXYPHENISATIN ACETATE]	> 20	> 20
CC(C)(O/N=C(/C(=O)NC1C(=O)N2C(C(=O)O)=C(C[n+]3ccccc3)CSC12)c1csc(N)n1)C(=O)O (stereo not drawn)	> 20	> 20
O=C(Nc1ccc(Cl)cc1)Nc1ccc(Cl)c(Cl)c1 [TRICLOCARBAN]	> 20	> 20
Nc1ncnc2c1ncn2[C@@H]1O[C@H](CO)C[C@H]1O [CORDYCEPIN]	> 20	> 20
CCCCC1C(=O)N(c2ccccc2)N(c2ccc(O)cc2)C1=O (stereo not drawn) [OXYPHENBUTAZONE ANHYDROUS]	> 20	> 20
O=C(O)c1ccccc1C(=O)Nc1ccc(S(=O)(=O)Nc2nccs2)cc1 [PHTHALYLSULFATHIAZOLE]	> 20	> 20
CC(C)(C)NCC(O)c1ccc(O)c(CO)c1 (stereo not drawn) [ALBUTEROL]	> 20	> 20
C[C@@H]1CCC2[C@](C)(CO)[C@@H](O)CC[C@]2(C)[C@]12CCC(CO)(CCO)O2 (stereo partly drawn)	> 20	> 20
Cc1ccccc1-c1cc(N2CCN(C)CC2)ncc1N(C)C(=O)C(C)(C)c1cc(C(F)(F)F)cc(C(F)(F)F)c1 [NETUPITANT]	> 20	> 20
CO[C@H](C)[C@](O)(C(=O)OCC1=CCN2CC[C@H](O)[C@@H]12)C(C)C [HELIOTRINE]	> 20	> 20
O=C(N[C@H]1CN2CCC1CC2)c1ccc(Cl)cc1 [PNU-282987]	> 20	> 20
CCN1C(=O)NC(c2ccccc2)C1=O (stereo not drawn) [ETHOTOIN]	> 20	> 20
C=CC[N@@+]12CC[C@]34c5ccccc5N5/C=C6\C7N(/C=C(/C53)[C@@H](C[C@@H]41)/C(=C/CO)C2)c1ccccc1[C@@]71CC[N@@+]2(CC=C)C/C(=C\CO)[C@@H]6C[C@@H]12 (stereo partly drawn)	> 20	> 20
O=[N+]([O-])c1cnc(-c2ccc(F)cc2)n1CCO [FLUNIDAZOLE]	> 20	> 20
CCC1CCCC(OC2CCC(N(C)C)C(C)O2)C(C)C(=O)C2=CC3C(C=C(C)C4CC(OC5OC(C)C(OC)C(OC)C5OC)CC43)C2CC(=O)O1.CCC1CCCC(OC2CCC(N(C)C)C(C)O2)C(C)C(=O)C2=CC3C(C=CC4CC(OC5OC(C)C(OC)C(OC)C5OC)CC43)C2CC(=O)O1 (stereo not drawn)	> 20	> 20

SMILES	IC50 [µM]	IC50 (read-out: pIC50 (converted)) [µM]
CN[C@@H](C)Cc1ccccc1 [METHAMPHETAMINE]	> 20	> 20
CNC(=O)c1ccc(C)c(-n2c(C)cc(OCc3ccc(F)cc3F)c(Br)c2=O)c1 [PH-797804]	> 20	> 20
CCc1nc(N)nc(N)c1-c1ccc(Cl)cc1 [PYRIMETHAMINE]	> 20	> 20
NC(=O)OCC(O)COc1ccc(Cl)cc1 (stereo not drawn) [CHLORPHENESIN CARBAMATE]	> 20	> 20
CC(=O)NCCCCCCNC(C)=O [HEXAMETHYLENEBISACETAMIDE]	> 20	> 20
c1cncc(C2=NCCC2)c1 [MYOSMINE]	> 20	> 20
CCC(/C=C/C(C)C1CCC2C3CC=C4CC(O)CCC4(C)C3CCC12C)C(C)C (stereo not drawn)	> 20	> 20
CCOC(C(=O)N(C)CCN(C)CCc1ccccc1)(c1ccccc1)c1ccccc1 [CARBIPHENE]	> 20	> 20
Cc1cc(C)nc(NS(=O)(=O)c2ccc(N)cc2)n1 [SULFAMETHAZINE]	> 20	> 20
OC[C@H]1O[C@@H](n2cnc3c(NC4CCCC4)ncnc32)[C@H](O)[C@@H]1O [N6-CYCLOPENTYLADENOSINE]	> 20	> 20
CC(C)CN(C[C@@H](O)[C@H](Cc1ccccc1)NC(=O)[C@H](CC(N)=O)NC(=O)c1ccc2ccccc2n1)C(=O)NC(C)(C)C	> 20	> 20
c1ccc(-c2cc(CCC3CCNCC3)c3ccccc3n2)cc1 [PIPEQUALINE]	> 20	> 20
OC(Cn1ccnc1)c1ccc(CCc2ccccc2)cc1 (stereo not drawn) [DENZIMOL]	> 20	> 20
Cc1ncccc1NC(=O)c1ccc2c(c1)CC[C@@H]1C[C@@](OP(=O)(O)O)(C(F)(F)F)CC[C@@]21Cc1ccccc1 [FOSDAGROCORAT]	> 20	> 20
O=c1c(O)c(-c2ccc(O)c(O)c2)oc2cc(O)cc(O)c12 [QUERCETIN]	> 20	> 20
NC(=O)C1(N2CCCCC2)CCN(CCCC(=O)c2ccc(F)cc2)CC1 [PIPAMPERONE]	> 20	> 20
C=CC(=O)N1C[C@H](Nc2ncnc3[nH]ccc23)CC[C@@H]1C [RITLECITINIB]	> 20	> 20
Cc1cc(C)cc([C@@H]2CCCN2Cc2ccc(Oc3ccc(C(N)=O)cc3F)cc2)c1 [ATICAPRANT]	> 20	> 20
O=C(O)CNC(=O)c1ccccc1 [HIPPURIC ACID]	> 20	> 20
COc1c(C)cnc(Cn2cnc3c(Cl)nc(N)nc32)c1C [BIIB021]	> 20	> 20
CCCc1c(OCCCOc2ccc(C(C)=O)c(OC)c2CCC)ccc2c1OC(C(=O)O)CC2 (stereo not drawn) [SC-41390]	> 20	> 20
NC(=S)N/N=C/c1ccncc1	> 20	> 20
CCOC(=O)Nc1ccc2c(c1)N(C(=O)CCN(CC)CC)c1ccccc1S2 [ETHACIZINE]	> 20	> 20

SMILES	IC50 [µM]	IC50 (read-out: pIC50 (converted)) [µM]
Oc1ccc2c3c1O[C@H]1[C@@H](O)C=C[C@H]4[C@@H](C2)NCC[C@@]341 [NORMORPHINE]	> 20	> 20
CC(=O)CC(c1ccccc1)c1c(O)c2ccccc2oc1=O (stereo not drawn) [WARFARIN]	> 20	> 20
CCC1(C)CC(=O)NC1=O (stereo not drawn) [ETHOSUXIMIDE]	> 20	> 20
COc1cc2c(c(OC)c1OC)-c1ccc(O)c(=O)cc1C(N)CC2 (stereo not drawn)	> 20	> 20
C[C@@H](O)[C@H](N)C(=O)O [THREONINE]	> 20	> 20
c1ccc2c(Cc3c[nH]c4ccccc34)c[nH]c2c1 [ARUNDINE]	> 20	> 20
O=C(Oc1ccc2c(c1)CCCN2C(=O)C(Cl)Cl)c1ccco1 [QUINFAMIDE]	> 20	> 20
CC(=O)OCCN1CCN(CCCN2c3ccccc3Sc3ccc(Cl)cc32)CC1 [THIOPROPAZATE]	> 20	> 20
C[C@]1(Cn2ccnn2)[C@H](C(=O)O)N2C(=O)C[C@H]2S1(=O)=O [TAZOBACTAM]	> 20	> 20
CCCCNC(=O)NC1CCN(c2ncnc3cc(OC)c(OC)cc23)CC1 [BUQUINERAN]	> 20	> 20
C[N+]1([O-])[C@@H]2C[C@@H](OC(=O)[C@H](CO)c3ccccc3)C[C@H]1[C@@H]1O[C@@H]12 (stereo partly drawn)	> 20	> 20
OCc1cc2c(cn1)[nH]c1ccccc12	> 20	> 20
COCC(=O)NC/C=C/c1ccc2ncnc(Nc3ccc(Oc4ccc(C)nc4)c(C)c3)c2c1 [CP-724714]	> 20	> 20
CN1CCC/C1=N\C(=N\c1ccccc1)N1CCOCC1 [LINOGLIRIDE]	> 20	> 20
Cc1cccc(N(C)C(=S)Oc2ccc3ccccc3c2)c1 [TOLNAFTATE]	> 20	> 20
CCCCS(=N)(=O)CCC(N)C(=O)O (stereo not drawn) [BUTHIONINE SULFOXIMINE]	> 20	> 20
COc1ccc(Cl)cc1NC(=O)Cc1ccc(S(=O)(=O)Nc2ncc(CC(C)C)cn2)cc1	> 20	> 20
CN1C(=O)CN=C(c2ccccc2F)c2cc([N+](=O)[O-])ccc21 [FLUNITRAZEPAM]	> 20	> 20
NS(=O)(=O)c1cc2c(cc1Cl)N=CNS2(=O)=O [CHLOROTHIAZIDE]	> 20	> 20
OC[C@H]1O[C@@H](S[C@@H]2O[C@H](CO)[C@H](O)[C@H](n3cc(-c4cccc(F)c4)nn3)[C@H]2O)[C@H](O)[C@@H](n2cc(-c3cccc(F)c3)nn2)[C@H]1O [OLITIGALTIN]	> 20	> 20
Nc1nc(=O)c2nc(CNc3ccc(C(=O)N[C@@H](CCC(=O)O)C(=O)O)cc3)cnc2[nH]1 [FOLIC ACID]	> 20	> 20
CC(=O)Nc1ccccc1 [ACETANILIDE]	> 20	> 20
Cc1c2oc3c(C)ccc(C(=O)N[C@@H]4C(=O)N[C@@H](C(C)C)C(=O)N5CCC[C@H]5C(=O)N(C)CC(=O)N(C)[C@@H](C(C)C)C(=O)O[C@@H]4C)c3nc-2c(C(=O)N[C@@H]2C(=O)N[C@@H](C(C)C)C(=O)N3CCC[C@H]3C(=O)N(C)CC(=O)N(C)[C@@H](C(C)C)C(=O)O[C@@H]2C)c(N)c1=O (I: TVP[Sar][NMeV] / II: TVP[Sar][NMeV]; ester I:1-I:C, II:1-II:C; linker I:N-II:N via Actinocin(1to9))	> 20	> 20
